Measured values taken from patent US9187438B2, “Derivatives of benzothiazines, preparation thereof and application thereof as drugs” (PIERRE FABRE MEDICAMENT, priority 2009, dated 2015).
pEC50: −log10 of the molar value.

How the values were obtained:
Format in all cases: biochemical
[1] = biological target: T1, 11β-HSD1 (Homo sapiens, UniProt P28845); assay: Human enzymatic activity of 11β-HSD1 from liver microsomes, [3H]cortisone to [3H]cortisol conversion, SPA (inhibition % or EC50); conditions: for inhibition at 1 µM: 10^−6M inhibitor, read-out: 11β-HSD1/SPA % inhib. (10^−6M)
T1 construct: adding 1 μg of human hepatic microsome (Xenotech); tissue Xenotech; host or cells: human liver microsomes
T1 sequence (P28845 whole entry): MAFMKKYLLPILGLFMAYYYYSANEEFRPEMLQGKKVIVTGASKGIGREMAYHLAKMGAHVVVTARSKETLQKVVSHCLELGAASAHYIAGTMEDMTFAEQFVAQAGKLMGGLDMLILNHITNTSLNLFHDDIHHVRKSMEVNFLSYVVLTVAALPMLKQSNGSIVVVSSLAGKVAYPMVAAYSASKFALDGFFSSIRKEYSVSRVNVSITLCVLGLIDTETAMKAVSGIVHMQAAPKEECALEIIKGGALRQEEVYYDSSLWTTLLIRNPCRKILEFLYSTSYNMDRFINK
Experimental: The enzymatic test is based on the conversion of [^3H] cortisone into [^3H] cortisol by 11β-HSD1. […] The sealed plates are centrifuged at low speed for mixing the components and then incubated for 2 hours at 37° C. (enzymatic phase). The enzymatic reaction is stopped by adding 70 μl/well of complex [10 mg/mL of yttrium silicate SPA beads associated with the protein A (GE Healthcare) and pre-incubated with an anti-cortisol monoclonal antibody (East Coast Biologics, ME)] containing 10 μM of 18β-glycerrhitinic acid. The plates are sealed and then incubated under slow orbital stirring for 2 hours at room temperature (detection phase).

[2] = biological target: T1, 11β-HSD1; assay: Human enzymatic activity of 11β-HSD1 from liver microsomes, cortisone to cortisol conversion, HTRF detection (inhibition %); conditions: 10^−6M inhibitor, read-out: 11β-HSD1/HTRF % inhib. (10^−6M)
Experimental: 1) Human Enzymatic Activity of 11β-HSD1 from Liver Microsomes after Treatment with Inhibitor Compounds (Inhibition %).
The enzymatic test is based on the conversion of cortisone into cortisol by 11β-HSD1. […] A calibration curve of known cortisol concentrations is produced simultaneously under the same experimental conditions. The plates are incubated for 2 hours at 37° C. (enzymatic phase). By adding 25 μL of conjugate cortisol-d2 and of 25 μL of anti-cortisol anαtibody labeled with Eu^3+ cryptate per well, the enzymatic reaction may be stopped and after incubation of 2 hours at room temperature the formed cortisol (detection phase) may be quantified by HTRF® (CIS bio international, reference 62CO2PEC). The fluorescence measurements are conducted with a Fusion™ α(Perkin Elmer) reader. For each well, fluorescence is measured at 620 nm and at 665 nm. A ratio (λ665 nm/λ620 nm) and a specific FRET signal are calculated, with which an inhibition percentage may be determined for each concentration of evaluated inhibitor compound.

[3] = biological target: T2, 11β-HSD2 (Homo sapiens, UniProt P80365); assay: Human enzymatic activity of 11β-HSD2 from kidney microsomes, [3H]cortisol to [3H]cortisone conversion, SPA (inhibition %); conditions: 10^−5M inhibitor, read-out: 11β-HSD2/SPA % inhib. (10^−5M)
T2 construct: of human kidney microsomes (Xenotech); tissue Xenotech; host or cells: human kidney microsomes
T2 sequence (P80365 1-405): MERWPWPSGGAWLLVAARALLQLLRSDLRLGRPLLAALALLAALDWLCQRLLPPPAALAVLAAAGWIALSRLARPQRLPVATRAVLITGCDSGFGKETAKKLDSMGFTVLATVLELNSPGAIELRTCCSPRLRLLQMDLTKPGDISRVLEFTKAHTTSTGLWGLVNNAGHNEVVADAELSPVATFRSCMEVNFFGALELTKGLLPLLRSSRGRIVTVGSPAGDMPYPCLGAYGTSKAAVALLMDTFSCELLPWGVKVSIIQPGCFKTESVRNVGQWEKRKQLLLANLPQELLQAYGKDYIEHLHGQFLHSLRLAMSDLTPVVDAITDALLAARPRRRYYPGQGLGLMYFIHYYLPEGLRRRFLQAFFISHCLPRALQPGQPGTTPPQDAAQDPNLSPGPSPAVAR
Experimental: 3) Human Enzymatic Activity of 11β-HSD2 from Kidney Microsomes after Treatment with the Inhibitor Compounds (Inhibition %).
The enzymatic test is based on the conversion of [^3H] cortisol into [^3H] cortisone by 11β-HSD2. The enzymatic reaction is started by adding 0.75 μg (standardization of this amount in order to obtain 80% of the conversion maximum of the substrate under the experimental conditions) of human kidney microsomes (Xenotech) to wells (Optiplate™ 96-well plates, a reaction volume of 50 μL) containing 8 nM [1,2,6,7-^3H] cortisol (specific activity of 70-75 Ci/mmol, Amersham-GE Healthcare) in a 50 mM HEPES buffer (pH 7.4) with 100 mM KCl, 5 mM NaCl, 2 mM MgCl2, 1 mM NAD^+ and the inhibitor compound or the carrier (1% DMSO). The sealed plates are centrifuged at low speed in order to mix the components and then incubated for 2 hours at 37° C. (enzymatic phase). The enzymatic reaction is stopped by adding 70 μl/well of complex [10 mg/mL of yttrium silicate SPA beads associated with protein A (GE Healthcare) and pre-incubated with an anti-cortisol monoclonal antibody (East Coast Biologics, ME)] containing 10 μM of 18β-glycerrhitinic acid. The plates are sealed and then incubated under slow orbital stirring for 2 hours at room temperature (detection phase). After centrifugation, the measurements are conducted with a scintillation counter TopCount NXT (Perkin Elmer). An inhibition percentage for each evaluated compound concentration is calculated relatively to the standard enzymatic activity (carrier 1% DMSO).

pEC50 [1]	inhibition at 1 µM [1]	inhibition at 1 µM [2]	inhibition at 10 µM [3]	Compound
7.80	97%	99%	42%	CN1C(C(=O)c2ccc3ccccc3c2)=C(O)c2ccccc2S1(=O)=O [Example 1, (4-Hydroxy-2-methyl-1,1-dioxo-2H-benzo[e][1,2]thiazin-3-yl)(naphthalen-2-yl)methanone]
7.19	93%	99%	33%	Cc1ccc(C(=O)C2=C(O)c3ccccc3S(=O)(=O)N2C)cc1 [Example 3, (4-hydroxy-2-methyl-2H-1,1-dioxo-benzo[e][1,2]thiazin-3-yl) (4-methylphenyl)methanone]
7.22	88%	98%	5%	CCN1C(C(=O)c2ccc3ccccc3c2)=C(O)c2ccccc2S1(=O)=O [Example 9, (4-hydroxy-2-ethyl-1,1-dioxo-2H-benzo[e][1,2]thiazin-3-yl)(naphthalen-2-yl)methanone]
7.96	99%	100%	61%	CN1C(C(=O)c2ccc3ccccc3c2)=C(O)c2ccc(F)cc2S1(=O)=O [Example 17, (7-Fluoro-4-hydroxy-2-methyl-1,1-dioxo-2H-benzo[e][1,2]thiazin-3-yl)(naphthalen-2-yl)methanone]
7.16	91%	100%	25%	CCN1C(C(=O)c2ccc3ccccc3c2)=C(O)c2ccc(F)cc2S1(=O)=O [Example 18, (7-Fluoro-4-hydroxy-2-ethyl-1,1-dioxo-2H-benzo[e][1,2]thiazin-3-yl)(naphthalen-2-yl)methanone]
7.14	91%	100%	63%	CC(=O)OC1=C(C(=O)c2ccc3ccccc3c2)N(C)S(=O)(=O)c2ccccc21 [Example 46, Acetic acid 2-methyl-3-(naphthalene-2-carbonyl)-1,1-dioxo-2H-benzo[e][1,2]thiazin-4-yl ester]
7.57	97%	100%	71%	CN1C(C(=O)c2ccc3ccccc3c2)=C(OC(=O)COc2ccccc2)c2ccccc2S1(=O)=O [Example 54, Phenoxyacetic acid 2-methyl-3-(naphthalene-2-ylcarbonyl)-1,1-dioxo-2H-benzo[e][1,2]thiazin-4-yl ester]
7.37	93%	100%	31%	CN1C(C(=O)c2ccc(Cl)c(Cl)c2)=C(O)c2ccccc2S1(=O)=O [Example 123, (4-hydroxy-2-methyl-1,1-dioxo-2H-benzo[e][1,2]thiazin-3-yl) (3,4-dichlorophenyl)methanone]
7.68	87%	100%	–	CN1C(C(=O)c2cccc(Br)c2)=C(O)c2ccccc2S1(=O)=O [Example 142, (3-Bromo-phenyl)-(4-hydroxy-2-methyl-1,1-dioxo-1,2-dihydro-2H-benzo[e][1,2]thiazin-3-yl)-methanone]
